The results in this text go back to patent US20130172320A1, “PYRIDO [4,3-B] INDOLE AND PYRIDO [3,4-B] INDOLE DERIVATIVES AND METHODS OF USE” (priority 2010, published 2013).

For orientation: inhibition means the relative decrease from the control value, in per cent.

Test [1] concerns the target human recombinant histamine H1 receptor (Homo sapiens, UniProt P35367). Put plainly: Histamine H1 radioligand binding ([3H]Pyrilamine). The following applies: compound at 1 μM; 1.2 nM [3H]Pyrilamine; read-out: Binding data (Percentage inhibition) Histamine H1 (1 μM). As for the experimental part: To evaluate in radioligand binding assays the activity of compounds of the invention, human recombinant histamine H1 receptor expressed in Chinese hamster ovary (CHO) cells (De Backer, M. et al, Biochem. Biophys. Res. Comm. 197(3):1601, 1993) in a modified Tris-HCl buffer (50 mM Tris-HCl, pH 7.4, 2 mM MgCl2, 100 mM NaCl, 250 mM Sucrose) was used. Compounds of the invention were incubated with 1.2 nM [^3H]Pyrilamine for 180 min at 25° C. Non-specific binding was estimated in the presence of 1 μM Pyrilamine. Receptor proteins were filtered and washed, the filters were then counted to determine [^3H]Pyrilamine specifically bound. Compounds were screened at 1 μM or lower, using 1% DMSO as vehicle. Biochemical assay results are presented as the percent inhibition of specific binding in Table 2.

Test [2] deals with human recombinant dopamine D2L receptor (Homo sapiens, UniProt P14416). The test is described as follows: Dopamine D2L radioligand binding ([3H]Spiperone). The following applies: compound at 1 μM; read-out: Percentage inhibition of ligand binding, Dopamine (1 μM) D2L. The protocol:
To evaluate in radioligand binding assays the activity of compounds of the invention, human recombinant dopamine D2L receptor expressed in Chinese hamster ovary (CHO) cells (Grandy, D. et al, Proc. Natl. Acad. Sci. USA. 86:9762, 1989; Hayes, G. et al, Mol. Endocrinol. 6:920, 1992) in a modified Tris-HCl buffer (50 mM Tris-HCl, pH 7.4, 1.4 mM Ascorbic Acid, 0.001% BSA, 150 mM NaCl) was used. Compounds of the invention were incubated with 0.16 nM [^3H]Spiperone for 120 min at 25° C. Non-specific binding was estimated in the presence of 10 μM Haloperidol. Receptor proteins were filtered and washed, the filters were then counted to determine [^3H]Spiperone specifically bound. Compounds were screened at 1 μM or lower, using 1% DMSO as vehicle. Biochemical assay results are presented as the percent inhibition of specific binding in Table 3.

The target of test [3] is T1, human recombinant serotonin (5-Hydroxytryptamine) 5-HT2A receptor (Homo sapiens, UniProt P28223).
T1 construct: expressed in transfected cells; host or cells: Chinese hamster ovary (CHO) K1 cells
T1 sequence (P28223 whole entry): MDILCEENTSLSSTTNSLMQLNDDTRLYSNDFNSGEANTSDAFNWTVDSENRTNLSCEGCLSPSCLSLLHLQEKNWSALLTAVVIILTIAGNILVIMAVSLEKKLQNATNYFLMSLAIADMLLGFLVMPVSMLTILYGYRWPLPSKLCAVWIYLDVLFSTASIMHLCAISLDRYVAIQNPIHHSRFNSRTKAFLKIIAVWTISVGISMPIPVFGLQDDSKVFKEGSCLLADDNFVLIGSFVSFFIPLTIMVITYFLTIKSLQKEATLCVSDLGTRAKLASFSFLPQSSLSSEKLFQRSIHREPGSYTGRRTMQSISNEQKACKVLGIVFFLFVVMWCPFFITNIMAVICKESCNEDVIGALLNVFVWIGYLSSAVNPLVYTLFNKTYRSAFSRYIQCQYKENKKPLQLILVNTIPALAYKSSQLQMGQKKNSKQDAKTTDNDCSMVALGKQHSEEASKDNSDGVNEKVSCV
The test is described as follows: Serotonin 5-HT2A radioligand binding ([3H]Ketanserin). The following applies: compound at 0.1 μM; read-out: Percentage inhibition of ligand binding, Serotonin (0.1 μM) 5-HT2A. The protocol: To evaluate in radioligand binding assays the activity of compounds of the invention, human recombinant serotonin (5-Hydroxytryptamine) 5-HT2A receptor expressed in Chinese hamster ovary (CHO) K1 cells (Bonhaus, D. et al, Br. J. Pharmacol. 115:622, 1995; Saucier, C. et al, J. Neurochem. 68:1998, 1997) in a 50 mM Tris-HCl buffer, pH 7.4, was used. Compounds of the invention were incubated with 0.5 nM [^3H]Ketanserin for 60 min at 25° C. Non-specific binding was estimated in the presence of 1 μM Mianserin. Receptor proteins were filtered and washed, the filters were then counted to determine [^3H]Ketanserin specifically bound. Compounds were screened at 1 μM or lower, using 1% DMSO as vehicle. Biochemical assay results are presented as the percent inhibition of specific binding in Table 4.

The target of test [4] is T2, human recombinant serotonin (5-Hydroxytryptamine) 5-HT2C receptor (Homo sapiens, UniProt P28335).
T2 construct: expressed in transfected cells; host or cells: Chinese hamster ovary (CHO) K1 cells
T2 sequence (P28335 33-458): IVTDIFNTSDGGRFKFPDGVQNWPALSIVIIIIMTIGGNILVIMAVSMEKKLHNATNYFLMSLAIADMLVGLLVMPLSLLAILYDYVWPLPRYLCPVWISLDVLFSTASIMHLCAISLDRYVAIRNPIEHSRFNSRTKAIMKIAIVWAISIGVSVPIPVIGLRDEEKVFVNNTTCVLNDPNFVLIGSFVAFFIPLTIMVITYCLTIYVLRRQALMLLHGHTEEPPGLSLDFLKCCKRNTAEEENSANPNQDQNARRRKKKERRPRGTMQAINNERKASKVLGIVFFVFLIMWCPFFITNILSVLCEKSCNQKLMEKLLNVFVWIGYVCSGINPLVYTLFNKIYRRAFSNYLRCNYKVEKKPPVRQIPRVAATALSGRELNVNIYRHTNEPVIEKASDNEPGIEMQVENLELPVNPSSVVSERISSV
Put plainly: Serotonin 5-HT2C radioligand binding ([3H]Mesulergine). The following applies: compound at 0.1 μM; read-out: Percentage inhibition of ligand binding, Serotonin (0.1 μM) 5-HT2C. The protocol: To evaluate in radioligand binding assays the activity of compounds of the invention, human recombinant serotonin (5-Hydroxytryptamine) 5-HT2C receptor expressed in Chinese hamster ovary (CHO) K1 cells (Wolf, W. et al, J. Neurochem. 69:1449, 1997) in a modified Tris-HCl buffer (50 mM Tris-HCl, pH 7.4, 0.1% Ascorbic Acid, 10 μM Pargyline) was used. Compounds of the invention were incubated with 1 nM [^3H]Mesulergine for 60 min at 25° C. Non-specific binding was estimated in the presence of 1 μM Mianserin. Receptor proteins were filtered and washed, the filters were then counted to determine [^3H]Mesulergine specifically bound. Compounds were screened at 1 μM or lower, using 1% DMSO as vehicle. Biochemical assay results are presented as the percent inhibition of specific binding in Table 4.

Test [5] deals with T3, human recombinant serotonin (5-Hydroxytryptamine) 5-HT6 receptor (Homo sapiens, UniProt P50406).
T3 construct: expressed in transfected cells; host or cells: human HeLa cells
T3 sequence (P50406 whole entry): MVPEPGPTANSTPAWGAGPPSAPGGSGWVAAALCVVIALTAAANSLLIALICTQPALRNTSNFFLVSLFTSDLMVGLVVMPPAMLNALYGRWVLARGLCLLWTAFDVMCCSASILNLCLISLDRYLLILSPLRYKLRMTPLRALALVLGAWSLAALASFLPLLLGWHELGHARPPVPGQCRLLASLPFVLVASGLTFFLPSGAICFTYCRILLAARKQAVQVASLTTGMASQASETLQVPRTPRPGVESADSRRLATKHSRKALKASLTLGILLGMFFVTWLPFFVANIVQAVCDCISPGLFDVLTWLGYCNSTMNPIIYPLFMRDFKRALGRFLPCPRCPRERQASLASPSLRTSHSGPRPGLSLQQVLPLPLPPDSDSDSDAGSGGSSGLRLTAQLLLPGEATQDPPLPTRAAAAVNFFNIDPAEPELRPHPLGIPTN
The test is described as follows: Serotonin 5-HT6 radioligand binding ([3H]LSD). The following applies: compound at 0.1 μM; read-out: Percentage inhibition of ligand binding, Serotonin (0.1 μM) 5-HT6. As for the experimental part:
To evaluate in radioligand binding assays the activity of compounds of the invention, human recombinant serotonin (5-Hydroxytryptamine) 5-HT6 receptor expressed in human HeLa cells (Monsma, F. Jr. et al, Mol. Pharmacol. 43:320, 1993) in a modified Tris-HCl buffer (50 mM Tris-HCl, pH 7.4, 150 mM NaCl, 2 mM Ascorbic Acid, 0.001% BSA) was used. Compounds of the invention were incubated with 1.5 nM [3H]Lysergic acid diethylamide (LSD) for 120 min at 37° C. Non-specific binding was estimated in the presence of 5 μM Serotonin (5-HT). Receptor proteins were filtered and washed, the filters were then counted to determine [3H]LSD specifically bound. Compounds were screened at 1 μM or lower, using 1% DMSO as vehicle. Biochemical assay results are presented as the percent inhibition of specific binding in Table 4.

For test [6], the target named is human recombinant serotonin (5-Hydroxytryptamine) 5-HT7 receptor (Homo sapiens, UniProt P34969). Put plainly: Serotonin 5-HT7 radioligand binding ([3H]LSD). To be noted: compound at 0.1 μM; read-out: Percentage inhibition of ligand binding, Serotonin (0.1 μM) 5-HT7. As for the experimental part:
To evaluate in radioligand binding assays the activity of compounds of the invention, human recombinant serotonin (5-Hydroxytryptamine) 5-HT7 receptor expressed in Chinese hamster ovary (CHO) cells (Roth, B. et al, J. Pharmacol. Exp. Ther. 268:1403, 1994; Shen, Y. et al, J. Biol. Chem. 268:18200, 1993) in a modified Tris-HCl buffer (50 mM Tris-HCl, pH 7.4, 10 mM MgCl2, 0.5 mM EDTA) was used. Compounds of invention were incubated with 5.5 nM [^3H] Lysergic acid diethylamide (LSD) for 2 h at 25° C. Non-specific binding was estimated in the presence of 10 μM Serotonin (5-HT). Receptor proteins were filtered and washed, the filters were then counted to determine [^3H]LSD specifically bound. Compounds were screened at 1 μM or lower, using 1% DMSO as vehicle. Biochemical assay results are presented as the percent inhibition of specific binding in Table 4.

Chain of human recombinant serotonin (5-Hydroxytryptamine) 5-HT7 receptor (P34969 whole entry): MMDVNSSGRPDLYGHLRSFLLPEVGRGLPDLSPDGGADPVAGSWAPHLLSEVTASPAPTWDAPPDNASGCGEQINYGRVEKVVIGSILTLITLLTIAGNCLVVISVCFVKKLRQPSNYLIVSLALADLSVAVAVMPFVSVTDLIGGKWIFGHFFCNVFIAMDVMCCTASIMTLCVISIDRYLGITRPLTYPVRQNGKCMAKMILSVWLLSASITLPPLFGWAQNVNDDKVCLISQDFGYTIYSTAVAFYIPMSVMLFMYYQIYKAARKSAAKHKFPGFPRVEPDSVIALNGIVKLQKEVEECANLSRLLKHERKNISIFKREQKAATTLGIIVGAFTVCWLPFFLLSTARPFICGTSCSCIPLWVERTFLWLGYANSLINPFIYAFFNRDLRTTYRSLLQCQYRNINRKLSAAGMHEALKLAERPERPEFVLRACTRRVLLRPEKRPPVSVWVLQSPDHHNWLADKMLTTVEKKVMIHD
Chain of human recombinant dopamine D2L receptor (P14416 whole entry): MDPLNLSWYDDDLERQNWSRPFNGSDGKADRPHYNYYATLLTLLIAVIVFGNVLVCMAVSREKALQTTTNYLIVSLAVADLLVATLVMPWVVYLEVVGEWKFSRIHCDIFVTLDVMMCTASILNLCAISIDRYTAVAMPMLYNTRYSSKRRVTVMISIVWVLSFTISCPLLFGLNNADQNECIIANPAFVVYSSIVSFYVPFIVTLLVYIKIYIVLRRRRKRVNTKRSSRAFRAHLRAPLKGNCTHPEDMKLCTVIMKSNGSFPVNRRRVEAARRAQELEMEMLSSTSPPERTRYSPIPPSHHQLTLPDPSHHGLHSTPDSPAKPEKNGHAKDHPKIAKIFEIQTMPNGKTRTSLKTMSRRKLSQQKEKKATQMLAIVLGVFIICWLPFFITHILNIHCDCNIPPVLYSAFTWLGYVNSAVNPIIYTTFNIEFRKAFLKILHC
Chain of human recombinant histamine H1 receptor (P35367 whole entry): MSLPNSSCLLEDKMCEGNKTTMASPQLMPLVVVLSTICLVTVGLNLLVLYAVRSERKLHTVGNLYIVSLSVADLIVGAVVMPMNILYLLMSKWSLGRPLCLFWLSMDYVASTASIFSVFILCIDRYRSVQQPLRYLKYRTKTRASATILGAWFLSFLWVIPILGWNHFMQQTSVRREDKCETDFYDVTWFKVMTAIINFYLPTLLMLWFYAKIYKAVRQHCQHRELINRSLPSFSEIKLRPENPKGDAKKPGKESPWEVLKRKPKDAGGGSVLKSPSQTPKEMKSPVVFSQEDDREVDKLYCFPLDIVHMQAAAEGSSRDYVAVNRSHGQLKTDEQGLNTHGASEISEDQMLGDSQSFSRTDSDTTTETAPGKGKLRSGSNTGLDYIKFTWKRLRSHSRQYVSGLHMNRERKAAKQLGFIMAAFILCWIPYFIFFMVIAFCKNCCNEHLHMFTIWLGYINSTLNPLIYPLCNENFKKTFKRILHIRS

`Cc1ccc2[nH]c3c(c2c1)CN(C)CC3(C)CCc1ccccc1` (stereo not drawn) [Compound 43]: the inhibition at 1 µM in test [1] was 93%; in test [2], 23%. The inhibition at 0.1 µM is 15% in test [3], -4% in test [4], 9% in test [5] and -23% in test [6].
Take `Cc1ccc2c(c1)c1c(n2C)C(C)(CCc2ccccc2)CN(C)C1` (stereo not drawn) [Compound 44]: the inhibition at 1 µM was 101% in test [1] and 33% in test [2]. Besides, the inhibition at 0.1 µM in test [3] was determined as 4%; in test [4], 12%; in test [5], 17%; in test [6] it was 29%.
`Cc1ccc2c(c1)c1c(n2C)C(C)(CCc2ccc(C)nc2)CN(C)C1` (stereo not drawn) [Compound 45]: the inhibition at 1 µM in test [1] was 99%; in test [2], 5%. For the same compound, the inhibition at 0.1 µM in test [3] is 1%; in test [4] it was 6%; in test [5] it was -4%; in test [6], -6%.
Take `Cc1ccc2[nH]c3c(c2c1)CN(C)CC3(C)CCc1ccc(C)nc1` (stereo not drawn) [Compound 46, 2,4,8-Trimethyl-4-[2-(6-methyl-pyridin-3-yl)-ethyl]-2,3,4,5-tetrahydro-1H-pyrido[4,3-b]indole]: the inhibition at 1 µM in test [1] worked out at 34%; in test [2], 3%. Moreover, the inhibition at 0.1 µM in test [3] is 7%; in test [4], 8%; in test [5] it was 6%; in test [6] it was -10%.
